Assays:
[1] = tested on: HepG2 human liver cancer cell line; assay: MTT assay, cancer cells HepG2; assay type: cell-based; conditions: MTT assay, 48 hours, HepG2
Text: (§1) The cytotoxicity against normal cells and cancer cells was confirmed using the MTT assay for the novel compounds KP2 to KP8 prepared in Example 1.
(§2) MTT assay method is as follows:
(§3) Normal cells (RAW264.7 rat macrophage cell line (osteoblast progenitor cell) and NIH3T3 mouse fibroblast line) and cancer cells (AGS human gastric cancer cell line, A549 human lung cancer cell line, HepG2 human liver cancer cell line, HCT116 human colon cancer cell line, PC3 human prostate cancer Cell line, Caki-1 human kidney cancer cell line, T24 human bladder cancer cell line, HT1080 human fibrosarcoma cell line, B16F10 mouse melanoma cell line) were cultured in 5% CO2 in 96-well plates containing DMEM with 10% FBS (fetal bovine serum). After incubation, KP2 to KP8 and controls (osmundacetone and 4-hydroxybenzalacetone) were added to the cell medium and incubated for 48 hours. Thereafter, 100 μl of MTT (0.5 mg/mL phosphate buffered saline) was added, followed by incubation for 2 hours. 100 μl of DMSO was added to each well, followed by incubation for 10 minutes, and the absorbance was measured at 550 nm using a microplate reader (SPCTRA MAX 340PC, Molecular Devices, USA). Absorbance is calculated by the formula below as an indicator of the number of cells that survived, and reproducibility was confirmed by three experiments.
(§4) The rate of cell proliferation (%)=OD550(sample)/OD550(control)

[2] = tested on: PC3 human prostate cancer Cell line; assay: MTT assay, cancer cells PC3; assay type: cell-based; conditions: 48 hours
Text: as §1, §2, §3, §4

[3] = tested on: HT1080 human fibrosarcoma cell line; assay: MTT assay, cancer cells HT1080; assay type: cell-based; conditions: 48 hours
Text: as §1, §2, §3, §4

[4] = tested on: osteoclast differentiation from bone marrow cells (RANKL and M-CSF); assay: TRAP assay, osteoclast differentiation and proliferation; assay type: cell-based, C57BL/6 mice; conditions: TRAP-positive multinucleated cells, mouse bone marrow cells, 6-7 days; read-out: osteoclast differentiation inhibitory activity IC50
Description: The specific method of the TRAP assay is as follows:
The tibia and femur were aseptically excised from 6 to 8 weeks old male C57BL/6 mice, and bone marrow cells were collected aseptically with a syringe (21G, Korea Green Cross). Bone marrow cells were suspended in 500 μl of -MEM medium (Gibco BRL Co.) containing sodium bicarbonate (2.0 g/L), streptomycin (100 mg/L) and penicillin ([…]), and aliquoted into a 48-well plate, and assay was carried out with triplicate. The progenitor cells of osteoclasts, monocytes, were isolated and treated with RANKL and M-CSF, which are differentiation promoters, to differentiate into osteoclasts within 5-7 days.
1) Sample preparation: KP2 to KP8 (0.5 μM, 1 μM, 5 μM or 10 μM), Fosamax (0.5 μM, 1 μM, 5 μM, or 10 μM) and the like were dissolved in DMSO (dimethylsulfoxide) or sterile distilled water at appropriate concentrations, respectively.
2) Sample administration: The Samples were continuously administered to the medium at 1:20 (v/v; 25 μL of sample per 500 μL of medium) from the first day of culture of bone marrow cells, and the medium was replaced at 3 days intervals.
3) Osteoclast differentiation measurement: Osteoclasts were defined as TRAP-positive multinucleated cells stained with TRAP. […] The reaction reagents were stored in the refrigerator until use.
Bone marrow cells were cultured in a medium containing differentiation factors for 6-7 days, and then the medium was removed, washed with PBS, and fixed in PBS containing 10% formalin for 2-5 minutes. After fixed for 1 minute with a 1:1 mixture of ethanol and acetone, and dried. The fixed cells were treated with TRAP staining solution for 60 minutes at 37° C. with light blocking, washed with PBS, and then stained with Hematoxylin.
Among the TRAP-positive cells in the microscope field, cells with two or more nuclei were determined as osteoclasts and the number of cells was measured.

[5] = tested on: HCT116 human colon cancer cell line; assay: MTT assay, cancer cells HCT116; assay type: cell-based; conditions: MTT assay, 48 hours, HCT116
Text: as §1, §2, §3, §4

[6] = tested on: AGS human gastric cancer cell line; assay: MTT assay, cancer cells AGS; assay type: cell-based; conditions: 48 hours
Text: as §1, §2, §3, §4

[7] = tested on: A549 human lung cancer cell line; assay: MTT assay, cancer cells A549; assay type: cell-based; conditions: MTT assay, 48 hours, A549
Text: as §1, §2, §3, §4

[8] = tested on: Caki-1 human kidney cancer cell line; assay: MTT assay, cancer cells Caki-1; assay type: cell-based; conditions: 48 hours
Text: as §1, §2, §3, §4

[9] = tested on: B16F10 mouse melanoma cell line; assay: MTT assay, cancer cells B16F10; assay type: cell-based; conditions: 48 hours, H16F10
Text: as §1, §2, §3, §4

[10] = tested on: osteoblasts (mouse MC3T3-E1); assay: ALP (Alkaline phosphatase) assay, osteoblast activity; assay type: cell-based; conditions: MC3T3-E1, 14 days, percentage against control
Description: Effect of KP4 to KP6 on proliferation and differentiation of osteoblast were confirmed using ALP (Alkaline phosphatase) assay, a method for measuring osteoblast activity.
Alkaline phosphatase (ALP), which is present in the cell membranes of osteoblasts, is known as a marker of osteoblast activity and is a regulator of inorganic phosphate transport, cell division or differentiation during calcification. Therefore, ALP activity was measured to determine the effect of the compounds of the present invention on the activity of osteoblasts. ALP activity was indirectly calculated by measuring the amount of p-nitrophenol, which is produced from hydrolysis of p-nitrophenyl phosphate (pNPP, Sigma, St. Louis, Mo., USA) in which ALP act as a catalyst, using a microplate reader at 405 nm wavelength.
Specifically, osteoblasts (mouse MC3T3-E1) were aliquoted into a 96-well plate (3×10^3 cells/100 μL/well) with α-MEM medium containing ascorbic acid (50 μg/mL) and 10 mM β-glycerophosphate, a differentiation factors of osteoblast. Then, KP4 to KP6 of the present invention, and osmundacetone were added at a final concentration of 10 μM and 50 μM, followed by changing medium every 72 hours and incubating for 14 days. After 14 days, the culture medium was removed from each well, washed three times with PBS, lysed with 0.2% Nonidet P-40/10 mmol/L MgCl2, and then treated ultrasonic wave with sosonifier cell disrupter (Model W-380, Heat Systems-Ultrasonics Inc., Farmingdale, N.Y.) for 3 minutes. The cell lysate was centrifuged at 1500 g for 10 minutes and the supernatant was collected to measure ALP activity. To account for changes in ALP activity according to cell number differences, total protein levels were measured using bicinchoninic acid (BCA) protein assay kit with bovine serum albumin as the standard protein, and enzyme activity was expressed as a percentage against the control group without the compound treatment.

[11] = tested on: RAW264.7 rat macrophage cell line; assay: MTT assay, normal cells RAW264.7; assay type: cell-based; conditions: MTT assay, 48 hours, RAW264.7
Text: as §1, §2, §3, §4

[12] = tested on: NIH3T3 mouse fibroblast line; assay: MTT assay, normal cells NIH3T3; assay type: cell-based; conditions: MTT assay, 48 hours, NTH3T3
Text: as §1, §2, §3, §4

[13] = tested on: T24 human bladder cancer cell line; assay: MTT assay, cancer cells T24; assay type: cell-based; conditions: MTT assay, 48 hours, T24
Text: as §1, §2, §3, §4

## CC(=O)/C=C/c1ccc(O)c(O)c1 [Osmundacetone, reference compound]
[1]
  LD63 Cancer cell HepG2: >5000 µM
[2]
  LD63 Cancer cell PC3: 60.6 ± 14 µM
[3]
  LD63 Cancer cell HT1080: >5000 µM
[4]
  IC50: 8 µM
[5]
  LD63 Cancer cell HCT116: 689 ± 27 µM
[6]
  LD63 Cancer cell AGS: 56.1 ± 2.1 µM
[7]
  LD63 Cancer cell A549: >5000 µM
[8]
  LD63 Cancer cell Caki-1: 695 ± 14 µM
[9]
  Cytotoxicity, B16F10 cells: 64.9 ± 59 µM
[10]; 10 μM
  % Activation of ALP activity: 115 ± 9.4%
[10]; 50 μM
  % Activation of ALP activity: 279 ± 61%
[11]
  LD50 Normal cells RAW264.7: 529 ± 41 µM
[12]
  LD50 Normal cells NTH3T3: >5000 µM
[13]
  LD63 Cancer cell T24: 2000 ± 250 µM

Source: US11629121B2, “Benzylideneacetone derivative and use thereof” (KORPHARM CO., LTD., priority 2017, dated 2023)
